Source: ChEMBL document CHEMBL5543172, “Novel Isoalantolactone-Based Derivatives as Potent NLRP3 Inflammasome Inhibitors: Design, Synthesis, and Biological Characterization” (J Med Chem, 2024)
Activity calls are given as the source filed them. The rule behind the calls is not given here.

Columns and labels:
[1] = test system: Mus musculus; test: Anti-colitis activity against DSS-induced ulcerative colitis C57BL/6 mouse model assessed as alleviation of reduced crypt count at 15 to 30 mg/kg, ip administered daily and measured after 10 days by H and E staining based analysis; format: functional, organism-based; details: dose 15-30 mg/kg, time 10.0 day
[2] = test system: THP-1; test: (§1) Inhibition of pyroptosis in LPS/nigericin induced PMA-differentiated human THP-1 cells assessed as reduction in LDH release at 0.25 to 0.1 uM preincubated with LPS for 3 hrs followed by compound addition for 40 mins and further stimulated with nigericin for 40 mins by LDH assay; format: functional, cell-based; details: dose lower 0.25 µM, time 80.0 min
[3] = biological target: Prostaglandin G/H synthase 2 (Homo sapiens) (UniProt P35354); test: Activation of COX2 (unknown origin) at 1 uM relative to control
[4] = test system: HEK293T; test: Inhibition of HA-NLRP3/FLAG tagged NEK7 interaction (unknown origin) transfected in HEK293T cells at 1 uM incubated for 24 hrs by Western blot analysis; format: cell-based; details: Homo sapiens
[5] = biological target: P2X purinoceptor 3 (Homo sapiens) (UniProt P56373); test: Inhibition of P2X3 (unknown origin) at 1 uM relative to control
[6] = Cmax in male C57BL/6 mouse at 30 mg/kg, ip measured upto 1440 mins by LC-MS/MS analysis; format: ADME, organism-based; details: in vivo
[7] = Metabolic stability in mouse liver microsomes assessed as half life preincubated for 5 mins followed by NADPH addition and measured upto 60 mins by LC-MS/MS analysis; format: ADME, Microsome; details: time < 65 min
[8] = biological target: NACHT, LRR and PYD domains-containing protein 3 (Mus musculus) (UniProt Q8R4B8); test: Inhibition of NLRP3 inflammasome activation in LPS/Nigericin induced mouse BMDM cells assessed as effect on pro-casapase-1 expression at 0.25 to 1 uM preincubated with LPS for 3 hrs followed by compound addition for 40 mins and further stimulated with nigericin for 40 mins by Western blot analysis; format: cell-based; details: dose 0.25-1 µM, time 80.0 min
[9] = biological target: Alpha-1A adrenergic receptor (Homo sapiens) (UniProt P35348); test: Inhibition of alpha 1A adrenergic receptor (unknown origin) at 1 uM relative to control
[10] = Cytotoxicity against human PBMC cells at 1.25 uM measured after 24 hrs by CCK-8 method; format: toxicity, cell-based
[11] = test system: THP-1; test: as §1, with “red fluorescence production” for “LDH release at 0.25 to 0.1 uM”, “PI staining based inverted microscopy based analysis” for “LDH assay”; format: functional, cell-based; details: dose 0.25-1 µM, time 80.0 min
[12] = biological target: Substance-P receptor (Homo sapiens) (UniProt P25103); test: Activation of NK1 receptor (unknown origin) at 1 uM relative to control
[13] = test system: Mus musculus; test: Anti-colitis activity against DSS-induced ulcerative colitis C57BL/6 mouse model assessed as reduction in DAI score at 15 to 30 mg/kg, ip administered daily and measured upto 10 days; format: functional, organism-based; details: dose 15-30 mg/kg, time <= 10.0 day
[14] = Drug distribution in C57BL/6 mouse colon at 30 mg/kg, ip measured after 2 hrs by LC-MS/MS analysis; format: ADME, organism-based; details: read-out: Drug uptake
[15] = test system: Mus musculus; test: Anti-colitis activity against DSS-induced ulcerative colitis C57BL/6 mouse model assessed as suppression of caspase-1 activation at 15 to 30 mg/kg, ip by Western blot analysis; format: functional, organism-based; details: dose 15-30 mg/kg
[16] = biological target: Cytochrome P450 2D6 (Homo sapiens, UniProt P10635); test: Inhibition of CYP2D6 in human liver microsomes using dextromethorphan as substrate preincubated for 5 mins followed by NADPH addition and measured after 30 to 60 mins by LC-MS/MS analysis; format: ADME, Microsome
[17] = biological target: Sodium-dependent noradrenaline transporter (Homo sapiens) (UniProt P23975); test: Inhibition of NET (unknown origin) at 1 uM relative to control
[18] = Drug distribution in C57BL/6 mouse plasma at 30 mg/kg, ip measured after 24 hrs by LC-MS/MS analysis; format: ADME, organism-based
[19] = biological target: 3',5'-cyclic-AMP phosphodiesterase 4D (Homo sapiens) (UniProt Q08499); test: Activation of PDE4D2 (unknown origin) at 1 uM relative to control
[20] = test system: BMDM; test: Inhibition of pyroptosis in LPS/nigericin induced […] cells assessed as reduction in […] at […] preincubated with LPS for 3 hrs followed by compound addition for 40 mins and further stimulated with nigericin for 40 mins by LDH assay; format: functional, cell-based; details: dose lower 0.25 µM, time 80.0 min
[21] = test system: Mus musculus; test: Anti-colitis activity against DSS-induced ulcerative colitis C57BL/6 mouse model assessed as improvement in body weight loss at 15 to 30 mg/kg, ip administered daily and measured upto 10 days; format: functional, organism-based; details: dose 15-30 mg/kg, time <= 10.0 day
[22] = test system: Mus musculus; test: Anti-colitis activity against DSS-induced ulcerative colitis C57BL/6 mouse model assessed as alleviation of goblet cell depletion at 15 to 30 mg/kg, ip administered daily and measured after 10 days by H and E staining based analysis; format: functional, organism-based; details: dose 15-30 mg/kg, time 10.0 day
[23] = Cytotoxicity against human PBMC cells at 0.08 to 0.63 uM measured after 24 hrs by CCK-8 method; format: toxicity, cell-based; details: dose 0.08-0.63 µM
[24] = test system: THP-1; test: Binding affinity to NLRP3deltaLRR mutant in PMA- differentiated human THP-1 cells assessed as protection of pronase-mediated protein degradation at 100 to 1000 uM pretreated with LPS for 3 hrs followed by incubation with compound for 50 mins followed by pronase digestion for 30 mins by DARTS analysis; format: cell-based; details: dose 100-1000 µM, time 80.0 min
[25] = biological target: NACHT, LRR and PYD domains-containing protein 3 (Mus musculus) (UniProt Q8R4B8); test: Inhibition of NLRP3 inflammasome activation in LPS/Nigericin induced mouse BMDM cells assessed as effect on NLRP3 expression at 0.25 to 1 uM preincubated with LPS for 3 hrs followed by compound addition for 40 mins and further stimulated with nigericin for 40 mins by Western blot analysis; format: cell-based; details: dose 0.25-1 µM, time 80.0 min
[26] = biological target: NACHT, LRR and PYD domains-containing protein 3 (Mus musculus, UniProt Q8R4B8); test: Inhibition of NLRP3 inflammasome activation in LPS-activated mouse BMDM cells assessed as inhibition of nigericin induced IL-1beta secretion preincubated with LPS for 3 hrs followed by compound addition for 40 mins and further stimulated with nigericin for 40 mins by ELISA method; format: cell-based
[27] = biological target: Prostaglandin E2 receptor EP2 subtype (Homo sapiens) (UniProt P43116); test: Inhibition of EP2 receptor (unknown origin) at 1 uM relative to control
[28] = biological target: Voltage-dependent N-type calcium channel subunit alpha-1B (Homo sapiens) (UniProt Q00975); test: Inhibition of Cav2.2 (unknown origin) at 1 uM relative to control
[29] = biological target: Transient receptor potential cation channel subfamily V member 1 (Homo sapiens) (UniProt Q8NER1); test: Inhibition of TRPV1 (unknown origin) at 1 uM relative to control
[30] = biological target: 5-hydroxytryptamine receptor 7 (Homo sapiens) (UniProt P34969); test: Inhibition of 5-HT7 receptor (unknown origin) at 1 uM relative to control
[31] = biological target: Cytochrome P450 1A2 (Homo sapiens, UniProt P05177); test: Inhibition of CYP1A2 in human liver microsomes using phenacetin as substrate preincubated for 5 mins followed by NADPH addition and measured after 30 to 60 mins by LC-MS/MS analysis; format: ADME, Microsome
[32] = species on record: Homo sapiens; test: Inhibition of GlyRalpha1beta (unknown origin) at 1 uM relative to control

Sequence of NACHT, LRR and PYD domains-containing protein 3 (Mus musculus) (Q8R4B8 whole entry, the tested form may be a part): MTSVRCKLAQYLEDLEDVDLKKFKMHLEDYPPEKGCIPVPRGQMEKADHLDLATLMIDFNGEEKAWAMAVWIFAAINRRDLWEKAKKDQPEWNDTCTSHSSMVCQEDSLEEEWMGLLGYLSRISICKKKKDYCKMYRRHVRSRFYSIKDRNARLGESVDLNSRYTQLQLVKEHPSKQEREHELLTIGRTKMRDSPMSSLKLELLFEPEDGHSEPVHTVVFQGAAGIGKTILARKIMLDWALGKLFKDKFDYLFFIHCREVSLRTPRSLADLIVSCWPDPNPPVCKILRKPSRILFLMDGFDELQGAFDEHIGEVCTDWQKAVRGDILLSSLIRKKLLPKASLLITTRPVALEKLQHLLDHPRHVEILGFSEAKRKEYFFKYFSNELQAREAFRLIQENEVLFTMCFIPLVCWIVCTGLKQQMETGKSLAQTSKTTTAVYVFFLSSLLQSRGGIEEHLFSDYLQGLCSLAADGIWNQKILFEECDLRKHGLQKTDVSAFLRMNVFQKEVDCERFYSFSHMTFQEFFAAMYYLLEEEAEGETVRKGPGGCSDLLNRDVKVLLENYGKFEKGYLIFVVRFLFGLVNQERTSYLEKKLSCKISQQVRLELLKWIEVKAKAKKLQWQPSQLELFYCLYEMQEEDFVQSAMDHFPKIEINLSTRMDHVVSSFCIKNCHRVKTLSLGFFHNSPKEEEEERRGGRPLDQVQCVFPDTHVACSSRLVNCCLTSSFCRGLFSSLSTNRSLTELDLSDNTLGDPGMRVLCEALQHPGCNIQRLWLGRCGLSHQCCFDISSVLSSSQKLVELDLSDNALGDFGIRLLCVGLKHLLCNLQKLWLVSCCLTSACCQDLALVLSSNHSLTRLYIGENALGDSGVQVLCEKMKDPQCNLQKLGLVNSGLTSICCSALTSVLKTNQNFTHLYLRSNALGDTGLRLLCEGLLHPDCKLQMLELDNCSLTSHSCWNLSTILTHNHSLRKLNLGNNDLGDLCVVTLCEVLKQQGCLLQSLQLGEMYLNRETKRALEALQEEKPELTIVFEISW
Sequence of Voltage-dependent N-type calcium channel subunit alpha-1B (Homo sapiens) (Q00975 whole entry, looked up): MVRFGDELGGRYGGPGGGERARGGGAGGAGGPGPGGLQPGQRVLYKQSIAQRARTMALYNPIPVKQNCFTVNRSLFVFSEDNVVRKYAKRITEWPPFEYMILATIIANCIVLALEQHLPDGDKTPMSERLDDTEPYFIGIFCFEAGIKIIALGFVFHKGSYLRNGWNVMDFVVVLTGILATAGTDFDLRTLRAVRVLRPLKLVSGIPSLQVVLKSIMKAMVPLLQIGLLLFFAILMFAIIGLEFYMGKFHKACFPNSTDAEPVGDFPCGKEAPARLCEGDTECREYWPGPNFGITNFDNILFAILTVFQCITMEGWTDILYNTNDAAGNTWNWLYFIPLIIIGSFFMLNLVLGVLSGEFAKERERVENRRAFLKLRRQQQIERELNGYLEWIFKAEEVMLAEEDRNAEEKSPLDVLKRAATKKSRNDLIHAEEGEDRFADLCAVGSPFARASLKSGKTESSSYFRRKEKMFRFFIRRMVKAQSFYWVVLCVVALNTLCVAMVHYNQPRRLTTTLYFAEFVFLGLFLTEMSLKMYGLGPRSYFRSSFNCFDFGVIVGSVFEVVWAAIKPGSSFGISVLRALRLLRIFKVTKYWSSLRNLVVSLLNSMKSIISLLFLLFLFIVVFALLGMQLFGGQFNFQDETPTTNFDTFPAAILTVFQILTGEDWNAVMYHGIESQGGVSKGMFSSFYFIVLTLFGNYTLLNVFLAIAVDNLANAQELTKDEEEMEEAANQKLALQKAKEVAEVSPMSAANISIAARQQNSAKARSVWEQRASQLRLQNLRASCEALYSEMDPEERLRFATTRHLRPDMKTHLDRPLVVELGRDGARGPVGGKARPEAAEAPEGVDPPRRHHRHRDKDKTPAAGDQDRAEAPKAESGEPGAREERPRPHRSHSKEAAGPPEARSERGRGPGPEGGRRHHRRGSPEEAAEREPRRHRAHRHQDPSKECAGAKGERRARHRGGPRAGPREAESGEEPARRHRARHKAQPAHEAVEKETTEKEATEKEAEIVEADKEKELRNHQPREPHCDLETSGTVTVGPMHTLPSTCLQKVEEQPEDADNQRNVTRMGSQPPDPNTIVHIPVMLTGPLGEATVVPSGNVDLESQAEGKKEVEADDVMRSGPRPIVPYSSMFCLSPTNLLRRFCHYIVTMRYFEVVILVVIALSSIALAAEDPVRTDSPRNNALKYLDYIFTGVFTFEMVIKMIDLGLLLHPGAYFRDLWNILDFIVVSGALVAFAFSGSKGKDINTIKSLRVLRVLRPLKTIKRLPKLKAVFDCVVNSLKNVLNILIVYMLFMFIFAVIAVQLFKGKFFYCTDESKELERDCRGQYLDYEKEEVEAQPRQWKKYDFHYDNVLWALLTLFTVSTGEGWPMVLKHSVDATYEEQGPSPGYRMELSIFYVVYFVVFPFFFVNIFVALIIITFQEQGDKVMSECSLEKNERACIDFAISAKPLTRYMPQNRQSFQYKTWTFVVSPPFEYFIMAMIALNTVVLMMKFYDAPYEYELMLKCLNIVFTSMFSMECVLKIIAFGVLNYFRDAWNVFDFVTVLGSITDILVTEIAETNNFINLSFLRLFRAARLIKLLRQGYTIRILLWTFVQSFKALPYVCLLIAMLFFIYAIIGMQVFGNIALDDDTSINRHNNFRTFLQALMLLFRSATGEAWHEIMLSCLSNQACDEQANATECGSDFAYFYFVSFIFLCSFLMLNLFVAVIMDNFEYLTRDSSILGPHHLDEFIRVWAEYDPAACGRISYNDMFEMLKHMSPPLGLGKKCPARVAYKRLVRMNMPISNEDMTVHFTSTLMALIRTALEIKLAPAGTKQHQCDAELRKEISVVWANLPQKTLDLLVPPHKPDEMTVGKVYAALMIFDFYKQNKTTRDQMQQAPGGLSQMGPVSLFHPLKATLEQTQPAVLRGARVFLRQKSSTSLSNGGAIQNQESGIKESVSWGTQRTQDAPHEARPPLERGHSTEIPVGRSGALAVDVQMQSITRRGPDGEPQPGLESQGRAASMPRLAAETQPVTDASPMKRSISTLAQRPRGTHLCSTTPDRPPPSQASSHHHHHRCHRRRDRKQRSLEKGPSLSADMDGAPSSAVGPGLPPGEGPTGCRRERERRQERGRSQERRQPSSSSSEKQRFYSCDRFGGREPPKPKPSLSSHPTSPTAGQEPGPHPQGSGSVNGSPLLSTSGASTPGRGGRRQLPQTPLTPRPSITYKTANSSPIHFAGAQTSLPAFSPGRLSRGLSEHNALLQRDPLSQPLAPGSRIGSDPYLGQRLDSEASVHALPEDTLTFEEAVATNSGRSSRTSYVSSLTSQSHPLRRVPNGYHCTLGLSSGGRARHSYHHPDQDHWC
Sequence of Cytochrome P450 2D6 (P10635 whole entry): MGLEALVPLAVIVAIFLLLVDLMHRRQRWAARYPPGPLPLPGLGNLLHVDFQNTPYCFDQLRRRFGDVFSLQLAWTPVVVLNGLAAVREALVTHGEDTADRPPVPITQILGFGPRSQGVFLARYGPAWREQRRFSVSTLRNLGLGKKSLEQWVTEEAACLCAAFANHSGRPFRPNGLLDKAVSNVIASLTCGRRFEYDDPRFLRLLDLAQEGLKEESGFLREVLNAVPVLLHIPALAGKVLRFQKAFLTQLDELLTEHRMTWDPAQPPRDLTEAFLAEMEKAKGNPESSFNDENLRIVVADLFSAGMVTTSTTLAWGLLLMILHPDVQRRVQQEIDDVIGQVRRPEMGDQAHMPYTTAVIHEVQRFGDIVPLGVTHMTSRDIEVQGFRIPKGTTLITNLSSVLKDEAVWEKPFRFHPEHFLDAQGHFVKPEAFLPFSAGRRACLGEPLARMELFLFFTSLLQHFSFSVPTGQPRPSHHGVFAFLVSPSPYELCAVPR
Sequence of Alpha-1A adrenergic receptor (Homo sapiens) (P35348 whole entry): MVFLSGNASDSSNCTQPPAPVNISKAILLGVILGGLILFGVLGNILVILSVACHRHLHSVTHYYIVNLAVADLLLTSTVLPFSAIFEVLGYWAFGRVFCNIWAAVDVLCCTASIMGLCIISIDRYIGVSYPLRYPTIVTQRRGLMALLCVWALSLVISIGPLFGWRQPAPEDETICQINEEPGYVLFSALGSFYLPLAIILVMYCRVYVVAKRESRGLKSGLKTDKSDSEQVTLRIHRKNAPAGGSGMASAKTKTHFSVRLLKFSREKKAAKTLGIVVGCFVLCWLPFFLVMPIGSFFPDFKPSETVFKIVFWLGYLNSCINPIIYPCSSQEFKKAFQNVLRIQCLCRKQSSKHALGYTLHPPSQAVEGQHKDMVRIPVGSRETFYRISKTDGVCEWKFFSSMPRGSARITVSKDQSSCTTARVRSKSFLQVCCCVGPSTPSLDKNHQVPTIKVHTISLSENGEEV
Sequence of Sodium-dependent noradrenaline transporter (Homo sapiens) (P23975 whole entry): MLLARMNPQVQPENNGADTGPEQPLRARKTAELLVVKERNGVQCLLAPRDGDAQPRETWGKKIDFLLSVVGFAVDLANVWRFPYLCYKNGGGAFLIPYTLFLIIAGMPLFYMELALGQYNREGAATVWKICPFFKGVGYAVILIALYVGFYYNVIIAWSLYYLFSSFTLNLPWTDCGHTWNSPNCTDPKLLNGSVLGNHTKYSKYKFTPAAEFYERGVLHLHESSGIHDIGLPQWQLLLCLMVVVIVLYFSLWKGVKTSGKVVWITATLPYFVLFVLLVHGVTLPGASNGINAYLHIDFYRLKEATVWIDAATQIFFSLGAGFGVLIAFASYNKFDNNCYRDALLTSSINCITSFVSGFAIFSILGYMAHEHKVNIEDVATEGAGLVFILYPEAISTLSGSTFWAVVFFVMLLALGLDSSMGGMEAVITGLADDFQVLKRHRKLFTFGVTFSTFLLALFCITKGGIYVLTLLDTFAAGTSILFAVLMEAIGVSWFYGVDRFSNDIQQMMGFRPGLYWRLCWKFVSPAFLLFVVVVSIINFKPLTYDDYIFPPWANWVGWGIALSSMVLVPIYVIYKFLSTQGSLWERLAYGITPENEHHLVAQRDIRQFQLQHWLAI
Sequence of NACHT, LRR and PYD domains-containing protein 3 (Q8R4B8 whole entry, the tested form may be a part): as the sequence (Q8R4B8 whole entry, the tested form may be a part) above

C=C1C(=O)O[C@@H]2C[C@@]3(C)CC[C@@H](OC(=O)c4cnc(Cl)cc4Cl)C(=C)[C@@H]3C[C@H]12
Activity [1]: Active
inhibition [2]: Active
Activity [3]: < 50%
inhibition [4]: Active
inhibition [5]: < 50%
Cmax [6]: 1.57 ng/mL
half-life [7]: 1.09 h
Activity [8]: inactive
inhibition [9]: < 50%
Activity [10]: Toxic
inhibition [11]: Active
Activity [12]: < 50%
Activity [13]: Active
concentration at 2 h [14]: 4610 ng/g
Activity [15]: Active
IC50 [16]: > 100 µM
inhibition [17]: < 50%
concentration at 24 h [18]: 1.65 ng/mL
Activity [19]: < 50%
inhibition [20]: Active
Activity [21]: Active
Activity [22]: Active
Activity [23]: Non-Toxic
Activity [24]: Active
inhibition [25]: inactive
IC50 [26]: 0.739 µM
inhibition [27]: < 50%
inhibition [28]: < 50%
inhibition [29]: < 50%
inhibition [30]: < 50%
IC50 [31]: > 100 µM
inhibition [32]: < 50%
